We go through five molecules from PubChem BioAssay AID258 (DTP/NCI, 2004).

“And” between values parts separate entries of the source, which are not always exact repeats. Equal values may be shown once. Toxic doses and inconclusive results are not listed.

For this assay, the system named is CD2F1 mice, L1210 leukemia sc, survival T/C. The assay can be described thus: NCI In Vivo Anticancer Drug Screen. Data for tumor model L1210 Leukemia (subcutaneous) in CD2F1 (CDF1) mice. As to conditions: endpoint: median survival time, higher = longer survival. Put shortly: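 Mice with transplanted tumor dosed; survival/tumor size read; T/C vs vehicle controls.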

Setting [1] is: dose: 3.0 mg/kg/injection, schedule: Q01DX009 (ip), vehicle: water.
Where [2] appears, read: dose: 3.0 mg/kg/injection, schedule: Q01DX009 (sc), vehicle: water.

On to `N[C@@H](Cc1ccc(N(CCCl)CCCl)cc1)C(=O)O`, for which the T/C (dose: 0.31 mg/kg/injection, schedule: Q01DX009 (ip), vehicle: saline) is 96 % of control; the T/C (dose: 0.31 mg/kg/injection, schedule: Q01DX009 (sc), vehicle: saline) is 100 % of control; the T/C (dose: 0.62 mg/kg/injection, schedule: Q01DX009 (ip), vehicle: saline) is 104 % of control; the T/C (dose: 0.62 mg/kg/injection, schedule: Q01DX009 (sc), vehicle: saline) is 104 % of control; the T/C (dose: 0.63 mg/kg/injection, schedule: Q01DX009 (ip), vehicle: saline) was 99 % of control; the T/C (dose: 1.0 mg/kg/injection, schedule: Q01DX009 (ip), vehicle: suspension in saline) was 121 % of control. The T/C runs as follows: (dose: 1.0 mg/kg/injection, schedule: Q01DX009 (sc), vehicle: saline with Tween-80) 105 % of control and 108 % of control; (dose: 1.25 mg/kg/injection, schedule: Q01DX009 (ip), vehicle: saline) 112 % of control and 113 % of control and 121 % of control; (dose: 1.25 mg/kg/injection, schedule: Q01DX009 (sc), vehicle: saline) 115 % of control and 121 % of control; (dose: 2.0 mg/kg/injection, schedule: Q01DX009 (sc), vehicle: saline with Tween-80) 110 % of control and 124 % of control; (dose: 2.5 mg/kg/injection, schedule: Q01DX009 (ip), vehicle: saline) 124 % of control; (dose: 3.0 mg/kg/injection, schedule: Q01DX009 (ip), vehicle: saline) 153 % of control. Moreover, the T/C was 168 % of control (dose: 3.5 mg/kg/injection, schedule: Q01DX009 (ip), vehicle: saline); 173 % of control (dose: 4.0 mg/kg/injection, schedule: Q01DX009 (ip), vehicle: saline); 169 % of control (dose: 4.0 mg/kg/injection, schedule: Q01DX009 (ip), vehicle: suspension in saline); 163 % of control (dose: 4.0 mg/kg/injection, schedule: Q01DX009 (sc), vehicle: saline with Tween-80); 169 % of control (dose: 4.5 mg/kg/injection, schedule: Q01DX009 (ip), vehicle: saline); 153 % of control and 156 % of control (dose: 5.0 mg/kg/injection, schedule: Q01DX009 (sc), vehicle: saline). In addition, the T/C (dose: 5.3 mg/kg/injection, schedule: Q01DX009 (sc), vehicle: saline) is 161 % of control; the T/C (dose: 7.5 mg/kg/injection, schedule: Q01DX009 (sc), vehicle: saline) was 104 % of control; the T/C (dose: 8.0 mg/kg/injection, schedule: Q01DX009 (ip), vehicle: suspension in saline) was 88 % of control; the T/C (dose: 8.0 mg/kg/injection, schedule: Q01DX009 (sc), vehicle: saline with Tween-80) was 168 % of control; the T/C (dose: 10.0 mg/kg/injection, schedule: Q01DX009 (sc), vehicle: saline) is 98 % of control; the T/C (dose: 16.0 mg/kg/injection, schedule: Q01DX009 (sc), vehicle: saline with Tween-80) was 118 % of control and 87 % of control. Also, the T/C is 110 % of control (dose: 18.0 mg/kg/injection, schedule: Q01DX009 (sc), vehicle: saline); 107 % of control (dose: 32.0 mg/kg/injection, schedule: Q01DX009 (sc), vehicle: saline with Tween-80); 108 % of control (dose: 64.0 mg/kg/injection, schedule: Q01DX009 (sc), vehicle: saline with Tween-80).

On to `C[C@H](N)C(=O)N[C@@H]1[C@H]2C(=C(O)C[C@@H](O)[C@@H]2O)C(=O)O[C@]1(C)C(Cl)Cl`, for which the T/C was 111 % of control (dose: 0.37 mg/kg/injection, schedule: Q01DX009 (ip), vehicle: water); 112 % of control (dose: 0.62 mg/kg/injection, schedule: Q01DX005 (ip), vehicle: water); 113 % of control (dose: 0.62 mg/kg/injection, schedule: Q01DX005 (iv), vehicle: water); 120 % of control (dose: 0.75 mg/kg/injection, schedule: Q01DX009 (ip), vehicle: water); 116 % of control (dose: 0.75 mg/kg/injection, schedule: Q01DX009 (sc), vehicle: water); 124 % of control (dose: 1.25 mg/kg/injection, schedule: Q01DX005 (ip), vehicle: water). Also, the T/C is 108 % of control (dose: 1.5 mg/kg/injection, schedule: Q01DX009 (oral), vehicle: water); 160 % of control under setting [1]; 109 % of control (dose: 3.0 mg/kg/injection, schedule: Q01DX009 (oral), vehicle: water); 160 % of control under setting [2]; 112 % of control (dose: 6.0 mg/kg/injection, schedule: Q01DX009 (oral), vehicle: water); 120 % of control (dose: 12.0 mg/kg/injection, schedule: Q01DX009 (oral), vehicle: water).

On to `S=P(N1CC1)(N1CC1)N1CC1`, for which the T/C was 107 % of control (dose: 1.5 mg/kg/injection, schedule: Q01DX009 (ip), vehicle: water); 105 % of control (dose: 1.5 mg/kg/injection, schedule: Q01DX009 (sc), vehicle: water); 105 % of control under setting [1]; 121 % of control (dose: 3.0 mg/kg/injection, schedule: Q01DX009 (sc), vehicle: saline); 101 % of control under setting [2]; 121 % of control (dose: 6.0 mg/kg/injection, schedule: Q01DX009 (ip), vehicle: water). The T/C (dose: 6.0 mg/kg/injection, schedule: Q01DX009 (sc), vehicle: saline) is 166 % of control and 176 % of control; the T/C (dose: 6.0 mg/kg/injection, schedule: Q01DX009 (sc), vehicle: water) is 122 % of control; the T/C (dose: 24.0 mg/kg/injection, schedule: Q01DX009 (ip), vehicle: water) was 194 % of control; the T/C (dose: 24.0 mg/kg/injection, schedule: Q01DX009 (sc), vehicle: water) is 157 % of control; the T/C (dose: 12.0 micrograms/kg/injection, schedule: Q01DX009 (ip), vehicle: saline) was 100 % of control; the T/C (dose: 12.0 micrograms/kg/injection, schedule: Q01DX009 (sc), vehicle: saline) is 107 % of control. Moreover, the T/C by setting is: (dose: 25.0 micrograms/kg/injection, schedule: Q01DX009 (ip), vehicle: saline) 104 % of control; (dose: 25.0 micrograms/kg/injection, schedule: Q01DX009 (sc), vehicle: saline) 98 % of control; (dose: 50.0 micrograms/kg/injection, schedule: Q01DX009 (ip), vehicle: saline) 104 % of control; (dose: 50.0 micrograms/kg/injection, schedule: Q01DX009 (sc), vehicle: saline) 100 % of control; (dose: 100.0 micrograms/kg/injection, schedule: Q01DX009 (ip), vehicle: saline) 100 % of control; (dose: 100.0 micrograms/kg/injection, schedule: Q01DX009 (sc), vehicle: saline) 98 % of control. For the same molecule, the T/C is, setting by setting: (dose: 200.0 micrograms/kg/injection, schedule: Q01DX009 (ip), vehicle: saline) 96 % of control; (dose: 200.0 micrograms/kg/injection, schedule: Q01DX009 (sc), vehicle: saline) 102 % of control; (dose: 400.0 micrograms/kg/injection, schedule: Q01DX009 (ip), vehicle: saline) 102 % of control; (dose: 400.0 micrograms/kg/injection, schedule: Q01DX009 (sc), vehicle: saline) 102 % of control.

Take `COc1ccc2[nH]c3ccc4cc[n+](CCN5CCC(C6CCN(CC[n+]7ccc8ccc9[nH]c%10ccc(OC)cc%10c9c8c7)CC6)CC5)cc4c3c2c1`: the T/C is, setting by setting: (dose: 6.9 mg/kg/injection, schedule: Q01DX009 (ip), vehicle: water) 104 % of control; (dose: 11.5 mg/kg/injection, schedule: Q01DX009 (ip), vehicle: water) 107 % of control; (dose: 12.5 mg/kg/injection, schedule: Q01DX009 (ip), vehicle: Klucel (hydroxypropylcellulose) (HPC)) 204 % of control and 93 % of control; (dose: 32.0 mg/kg/injection, schedule: Q01DX009 (ip), vehicle: water) 107 % of control; (dose: 50.0 mg/kg/injection, schedule: Q01DX009 (ip), vehicle: Klucel (hydroxypropylcellulose) (HPC)) 340 % of control.

`FC(F)(F)c1nc2nc(Cl)c(Cl)nc2[nH]1`: the T/C runs as follows: (dose: 30.0 mg/kg/injection, schedule: Q04DX003 (ip), vehicle: saline with Tween-80) 104 % of control; (dose: 44.0 mg/kg/injection, schedule: Q04DX003 (ip), vehicle: saline with Tween-80) 106 % of control; (dose: 66.0 mg/kg/injection, schedule: Q04DX003 (ip), vehicle: saline with Tween-80) 106 % of control.
